These results are taken from patent publication US20090012766A1, “Event Sequencer” (NATIONAL INSTITUTE OF ADVANCED INDUSTRIAL SCIENCE AND …, priority 2004, published 2009).

The subject of test [1] is cells resistant or sensitive to the anticancer agent. The experiment in a line: Time-lapse profiles of cells exposed to an anticancer agent. The test is classed as cell-based. The conditions noted are these: 1 μM, 5 μM, 10 μM and the like. How it is done:
In this example, cisplatin was used as an exemplary anticancer agent and mixed into medium contacting cells. The concentration of the anticancer agent was selected as appropriate, such as 1 μM, 5 μM, 10 μM, and the like, to observe the reaction of the cells. Cisplatin was applied to cells resistant or sensitive to the anticancer agent. Time-lapse observation was conducted to produce profiles as in the above-described examples.

Test [2] relates to HEK293 cells. The test is described as follows: Solid phase transfection with actin-like acting substances, gelatin as control (FIG. 1). It is filed as cell-based, human. How it is done:
(§1) The final concentration of DNA was adjusted to 1 μg/μL. An actin-like acting substance was stored as a stock having a concentration of 10 μg/μL, in ddH2O. All dilutions were made using PBS, ddH2O, or Dulbecco's MEM. A series of dilutions, for example, 0.2 μg/μL, 0.27 μg/μL, 0.4 μg/μL, 0.53 μg/μL, 0.6 μg/μL, 0.8 μg/μL, 1.0 μg/μL, 1.07 μg/μL, 1.33 μg/μL, and the like, were formulated.
In Example 2, the following 5 cells were used to confirm an effect: human mesenchymal stem cell (hMSCs, PT-2501, Cambrex BioScience Walkersville, Inc., MD); human embryonic renal cell (HEK293, RCB1637, RIKEN Cell Bank, JPN); NIH3T3-3 cell (RCB0150, RIKEN Cell Bank, JPN); HeLa cell (RCB0007, RIKEN Cell Bank, JPN); and HepG2(RCB1648, RIKEN Cell Bank, JPN). These cells were cultured in DMEM/10% IFS containing L-glutamine and penicillin/streptomycin.
(§2) Transfection reagents and DNA were mixed to form a DNA-transfection reagent complex. Formation of the complex requires a certain period of time. Therefore, the mixture was spotted onto a solid phase support (e.g., a poly-L-lysine slide) using an arrayer. In Example 2, as a solid phase support, an APS slide, a MAS slide, and an uncoated slide were used, as well as a poly-L-lysine slide. These slides are available from Matsunami Glass (Kishiwada, Japan), or the like.
Although the actin-like acting substance might be used during complex formation, it was also used immediately before spotting in the present Example.
300 μL of DNA concentrated buffer (EC buffer)+16 μL of an enhancer were mixed in an Eppendorf tube. The mixture was mixed with a Vortex, followed by incubation for 5 minutes. […]
Gene introduction was evaluated by detection using, for example, immunofluorescence, fluorescence microscope examination, laser scanning, radioactive labels, and sensitive films, or emulsion.
(§3) To quantify transfection efficiency, the present inventors use a DNA microarray scanner (GeneTAC UC4×4, Genomic Solutions Inc., MI). Total fluorescence intensity (arbitrary unit) was measured, and thereafter, fluorescence intensity per unit surface area was calculated.

Test [3] deals with Mesenchymal Stem Cells. The experiment in a line: Solid phase transfection at varied fibronectin concentration on PLL, APS and uncoated slides (FIG. 7). The test is classed as cell-based, human. How it is done: as §1, §2
The growing cells were adjusted to a concentration of 10^7 cells/25 mL. The cells were plated on the slide in a 100×100×15 mm squared Petri dish or a 100 mm (radius)×15 mm circular dish. Transfection was conducted for about 40 hours. This period of time corresponded to about 2 cell cycles. The slide was treated for immunofluorescence.
as §3
In FIG. 7, slides coated with PLL (poly-L-lysine), APS and uncoated slides are shown.

In test [4] the test system is Human Mesenchymal Cell. The test is described as follows: Cell adhesion profile, actin filaments and nuclear surface area with or without fibronectin (FIGS. 8-10). The test is classed as cell-based. The conditions noted are these: presence of fibronectin.

As for `N.N.[Cl][Pt][Cl]` [cisplatin], the time-lapse profiles result in test [1] is “varied depending on the difference in cisplatin concentration and resistance/sensitivity”.

For the compound gelatin [reference compound], the “transfection in the system using the actin-like acting substance” value (shortened to “transfection in the system”) in test [2] is “transfection was not very successful”.

laminin: the “transfection in the system” value in test [2] is reported as “transfection took place to a significant level”.

As to fibronectin, in test [2], the “transfection in the system” value was “transfection took place to a significant level”. Further, the “fibronectin concentration at which the effect was further increased” value in test [3] (APS slides) was over 1.07 µg/µL. The “fibronectin concentration at which transfection efficiency reached a plateau” value in test [3] (PLL coating and absence of coating) is recorded as “more than 0.53 μg/μL”. Besides, the “transfection efficiency as a function of fibronectin concentration” value in test [3] (fibronectin 0 to 1.33 μg/μL, PLL, APS, uncoated slides) is listed as “increased with an increase in fibronectin concentration”. Moreover, the “surface area of the nucleus” value in test [4] is recorded as “significantly increased”. Further, in test [4] (initial 3 hours of culture), the “extension of adherent cells” value was “full extension of cells”.
